The values below come from ChEMBL document CHEMBL3259549, “Unraveling the structure-activity relationship of tomatidine, a steroid alkaloid with unique antibiotic properties against persistent forms of Staphylococcus aureus” (2014).

The test system of test [1] is Staphylococcus aureus. As to the kind of experiment: microbe, parasite or virus in culture. The settings on record: ATCC 29213, 48 h.
Description: Antimicrobial activity against Staphylococcus aureus ATCC 29213 after 48 hrs by broth microdilution method
For test [2], the system named is Staphylococcus aureus. Description: Antimicrobial activity against hemB-deficient Staphylococcus aureus Newbould after 48 hrs by broth microdilution method. Type of test: functional. On the technique in general: Dilution methods test growth across graded concentrations, often in twofold steps.
For test [3], the system named is Staphylococcus aureus. As to the kind of experiment: MIC fold reduction, ratio of gentamicin MIC for Staphylococcus aureus ATCC 29213 to gentamicin MIC for Staphylococcus aureus ATCC 29213 in presence of compound.

In brackets after ≈: the same amount, converted by molar mass. Some results are limits rather than exact numbers.

As to `C[C@H]1CC[C@]2(NC1)O[C@H]1C[C@H]3[C@@H]4CC[C@H]5CC(NCCCCN)CC[C@]5(C)[C@H]4CC[C@]3(C)[C@H]1[C@@H]2C.Cl.Cl.Cl` (some centres undefined), the MIC came out at 16 µg/mL in the test on Staphylococcus aureus [1] and 0.5 µg/mL in the test on Staphylococcus aureus [2]. Further, the “gentamicin MIC fold reduction” value with Staphylococcus aureus [3] was determined as 4.

Regarding `CCCCNC(C)[C@H]1CC[C@H]2[C@@H]3CC[C@H]4C[C@@H](O)CC[C@]4(C)[C@H]3CC[C@]12C.Cl` (some centres undefined), the figures for the MIC with Staphylococcus aureus [1] and against Staphylococcus aureus [2] were 64 µg/mL and 4 µg/mL, respectively. Moreover, the “gentamicin MIC fold reduction” value in the test on Staphylococcus aureus [3] is reported as 8.

For `CC(C)CCNC(C)[C@H]1CC[C@H]2[C@@H]3CC[C@H]4C[C@@H](O)CC[C@]4(C)[C@H]3CC[C@]12C.Cl` (some centres undefined), the MIC is greater than 64 µg/mL in the test with Staphylococcus aureus [1] and greater than 8 µg/mL against Staphylococcus aureus [2]. Further, the “gentamicin MIC fold reduction” value in the test with Staphylococcus aureus [3] was determined as 4.

As for `C[C@H]1CC[C@]2(NC1)O[C@H]1C[C@H]3[C@@H]4CC[C@H]5CC(=O)CC[C@]5(C)[C@H]4CC[C@]3(C)[C@H]1[C@@H]2C.Cl`, the MIC in the test with Staphylococcus aureus [1] was greater than 64 µg/mL; in the test with Staphylococcus aureus [2], 0.25 µg/mL. Further, the “gentamicin MIC fold reduction” value in the test on Staphylococcus aureus [3] stood at 8.

In the case of `C[C@H]1CC[C@]2(NC1)O[C@H]1C[C@H]3[C@@H]4CC[C@H]5CC(NCCCCCCN)CC[C@]5(C)[C@H]4CC[C@]3(C)[C@H]1[C@@H]2C.Cl.Cl.Cl` (some centres undefined), the MIC in the test on Staphylococcus aureus [1] is 32 µg/mL; with Staphylococcus aureus [2] it was 1 µg/mL. The “gentamicin MIC fold reduction” value with Staphylococcus aureus [3] worked out at 2.

As to `CC(NCCCN)[C@H]1CC[C@H]2[C@@H]3CC[C@H]4C[C@@H](O)CC[C@]4(C)[C@H]3CC[C@]12C.Cl.Cl` (some centres undefined), the MIC against Staphylococcus aureus [1] is 32 µg/mL; in the test on Staphylococcus aureus [2] it was greater than 8 µg/mL. Further, the “gentamicin MIC fold reduction” value with Staphylococcus aureus [3] is 2.

`C[C@H]1CC[C@]2(NC1)O[C@H]1C[C@H]3[C@@H]4CC[C@H]5C[C@@H](O)CC[C@]5(C)[C@H]4CC[C@]3(C)[C@H]1[C@@H]2C` [TOMATIDINE] showed an MIC in the test on Staphylococcus aureus [2] of 0.12 µg/mL (≈ 0.289 µM).

As to `C[C@H]1CC[C@@]2(O[C@H]3C[C@H]4[C@@H]5CC[C@H]6C[C@@H](O)CC[C@]6(C)[C@H]5CC[C@]4(C)[C@H]3[C@@H]2C)N(C=O)C1`, the MIC against Staphylococcus aureus [1] is greater than 64 µg/mL; in the test with Staphylococcus aureus [2], greater than 8 µg/mL. Besides, the “gentamicin MIC fold reduction” value with Staphylococcus aureus [3] stood at 2.

As to `C[C@H]1CCC([C@@H](C)[C@H]2[C@@H](O)C[C@H]3[C@@H]4CC[C@H]5C[C@@H](O)CC[C@]5(C)[C@H]4CC[C@]23C)NC1.Cl` (some centres undefined), the MIC in the test with Staphylococcus aureus [1] was 32 µg/mL; with Staphylococcus aureus [2], 4 µg/mL. In addition, the “gentamicin MIC fold reduction” value with Staphylococcus aureus [3] came to 4.

Turning to `C[C@H]1CC[C@]2(NC1)O[C@H]1C[C@H]3[C@@H]4CC[C@H]5CC(NCCN)CC[C@]5(C)[C@H]4CC[C@]3(C)[C@H]1[C@@H]2C.Cl.Cl.Cl` (some centres undefined), the MIC came out at 8 µg/mL with Staphylococcus aureus [1] and 0.5 µg/mL in the test on Staphylococcus aureus [2]. Moreover, in the test on Staphylococcus aureus [3], the “gentamicin MIC fold reduction” value was 4.

As to `CC(=O)NC[C@@H](C)CCC1=C(C)[C@H]2[C@H](C[C@H]3[C@@H]4CC[C@H]5C[C@@H](O)CC[C@]5(C)[C@H]4CC[C@@]32C)O1`, the MIC is greater than 64 µg/mL in the test on Staphylococcus aureus [1] and greater than 8 µg/mL in the test on Staphylococcus aureus [2]. Besides, in the test with Staphylococcus aureus [3], the “gentamicin MIC fold reduction” value is 1.

In the case of `C[C@]12CC[C@H](O)C[C@@H]1CC[C@@H]1[C@@H]2CC[C@]2(C)[C@@H](C(=O)CN3CCCCC3)CC[C@@H]12`, the values for the MIC against Staphylococcus aureus [1] and in the test on Staphylococcus aureus [2] were greater than 64 µg/mL and greater than 8 µg/mL, respectively. Also, the “gentamicin MIC fold reduction” value in the test with Staphylococcus aureus [3] turned out to be 2.

For the molecule `C[C@H]1CC[C@]2(NC1)O[C@H]1C[C@H]3[C@@H]4CC[C@H]5CC(N)CC[C@]5(C)[C@H]4CC[C@]3(C)[C@H]1[C@@H]2C.Cl.Cl` (some centres undefined), the figures for the MIC in the test with Staphylococcus aureus [1] and against Staphylococcus aureus [2] were 32 µg/mL and 1 µg/mL, respectively. Moreover, the “gentamicin MIC fold reduction” value in the test on Staphylococcus aureus [3] is given as 8.

As to `CC(=O)NC[C@@H](C)CCC1O[C@H]2C[C@H]3[C@@H]4CC[C@H]5C[C@@H](O)CC[C@]5(C)[C@H]4CC[C@]3(C)[C@H]2[C@@H]1C` (some centres undefined), the MIC is greater than 64 µg/mL against Staphylococcus aureus [1] and greater than 8 µg/mL in the test on Staphylococcus aureus [2]. In the test on Staphylococcus aureus [3], the “gentamicin MIC fold reduction” value was 1.

For the molecule `C[C@@H]1CC[C@@]2(NC1)O[C@H]1C[C@H]3[C@@H]4CC[C@H]5C[C@@H](O)CC[C@]5(C)[C@H]4CC[C@]3(C)[C@H]1[C@@H]2C`, the results for the MIC with Staphylococcus aureus [1] and in the test with Staphylococcus aureus [2] were greater than 64 µg/mL and greater than 8 µg/mL, respectively. Also, the “gentamicin MIC fold reduction” value in the test on Staphylococcus aureus [3] stood at 1.

Take `C=CCO[C@H]1CC[C@@]2(C)[C@@H](CC[C@@H]3[C@@H]2CC[C@]2(C)[C@@H]4[C@H](C[C@@H]32)O[C@@]2(CC[C@H](C)CN2)[C@H]4C)C1.Cl`: the MIC worked out at 16 µg/mL against Staphylococcus aureus [1] and 0.25 µg/mL in the test with Staphylococcus aureus [2]. In addition, the “gentamicin MIC fold reduction” value with Staphylococcus aureus [3] turned out to be 8.

For the molecule `CC(NCCN)[C@H]1CC[C@H]2[C@@H]3CC[C@H]4C[C@@H](O)CC[C@]4(C)[C@H]3CC[C@]12C.Cl.Cl` (some centres undefined), the values for the MIC in the test on Staphylococcus aureus [1] and with Staphylococcus aureus [2] were 32 µg/mL and greater than 8 µg/mL, respectively. For the same molecule, the “gentamicin MIC fold reduction” value in the test on Staphylococcus aureus [3] worked out at 2.

With `CCCCNC(C)[C@H]1[C@@H](O)C[C@H]2[C@@H]3CC[C@H]4C[C@@H](O)CC[C@]4(C)[C@H]3CC[C@@]21C.Cl` (some centres undefined), the MIC against Staphylococcus aureus [1] was greater than 64 µg/mL; with Staphylococcus aureus [2], greater than 8 µg/mL. Besides, in the test on Staphylococcus aureus [3], the “gentamicin MIC fold reduction” value worked out at 2.

For the molecule `CC(NCCCN(C)C)[C@H]1[C@@H](O)C[C@H]2[C@@H]3CC[C@H]4C[C@@H](O)CC[C@]4(C)[C@H]3CC[C@@]21C` (some centres undefined), the values for the MIC in the test with Staphylococcus aureus [1] and against Staphylococcus aureus [2] were greater than 64 µg/mL and greater than 8 µg/mL, respectively. Also, the “gentamicin MIC fold reduction” value in the test on Staphylococcus aureus [3] turned out to be 2.

As for `CN(C)CC(=O)[C@H]1CC[C@H]2[C@@H]3CC[C@H]4C[C@@H](O)CC[C@]4(C)[C@H]3CC[C@]12C`, the figures for the MIC against Staphylococcus aureus [1] and against Staphylococcus aureus [2] were greater than 64 µg/mL and greater than 8 µg/mL, respectively. In addition, the “gentamicin MIC fold reduction” value in the test with Staphylococcus aureus [3] is listed as 2.

Take `C[C@H]1CC[C@]2(NC1)O[C@H]1C[C@H]3[C@@H]4CC[C@H]5C[C@@H](O)CC[C@]5(C)[C@H]4CC[C@]3(C)[C@H]1[C@@H]2C.Cl`: the MIC was greater than 64 µg/mL against Staphylococcus aureus [1] and 0.06 µg/mL against Staphylococcus aureus [2]. The “gentamicin MIC fold reduction” value with Staphylococcus aureus [3] is given as 8.

In the case of GENTAMICIN, the MIC in the test on Staphylococcus aureus [2] came out at 0.03 µg/mL.

Consider `CC(N)[C@H]1CC[C@H]2[C@@H]3CC[C@H]4C[C@@H](O)CC[C@]4(C)[C@H]3CC[C@]12C.Cl` (some centres undefined), for which the MIC against Staphylococcus aureus [1] is 64 µg/mL; in the test on Staphylococcus aureus [2], greater than 8 µg/mL. For the same molecule, the “gentamicin MIC fold reduction” value in the test on Staphylococcus aureus [3] was 2.

For `CC(NCCCCN)[C@H]1CC[C@H]2[C@@H]3CC[C@H]4C[C@@H](O)CC[C@]4(C)[C@H]3CC[C@]12C.Cl.Cl` (some centres undefined), the results for the MIC against Staphylococcus aureus [1] and against Staphylococcus aureus [2] were 32 µg/mL and greater than 8 µg/mL, respectively. The “gentamicin MIC fold reduction” value in the test on Staphylococcus aureus [3] is on record as 2.

For the molecule `C[C@H]1CC[C@]2(NC1)O[C@H]1C[C@H]3[C@@H]4CC[C@H]5C[C@H](O)CC[C@]5(C)[C@H]4CC[C@]3(C)[C@H]1[C@@H]2C.Cl`, the figures for the MIC in the test on Staphylococcus aureus [1] and against Staphylococcus aureus [2] were greater than 64 µg/mL and 4 µg/mL, respectively. Further, the “gentamicin MIC fold reduction” value with Staphylococcus aureus [3] worked out at 4.

Turning to `CC(=O)NC[C@@H](C)CCC(O)[C@@H](C)[C@H]1[C@@H](O)C[C@H]2[C@@H]3CC[C@H]4C[C@@H](O)CC[C@]4(C)[C@H]3CC[C@]12C` (some centres undefined), the figures for the MIC against Staphylococcus aureus [1] and against Staphylococcus aureus [2] were greater than 64 µg/mL and greater than 8 µg/mL, respectively. The “gentamicin MIC fold reduction” value with Staphylococcus aureus [3] is 1.
